Results taken from PubChem BioAssay AID330 (DTP/NCI, 2004).
Several values for one entry are separate records, joined by “and”; a condition that tells them apart may be missing. Equal entries are not always repeated. Toxic doses and inconclusive results are not listed. Peptide text beside a SMILES is read from it.

Tested on: P388 leukemia ip, CD2F1 mice, survival T/C
Test: NCI In Vivo Anticancer Drug Screen. Data for tumor model P388 Leukemia (intraperitoneal) in CD2F1 (CDF1) mice
Details: endpoint: median survival time, higher = longer survival
In short: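 Mice carrying the transplanted tumor received test compound or vehicle. Survival was recorded in each group, and the value is the treated-group measurement divided by that of the vehicle-treated control group.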

[1] = dose: 25.0 mg/kg/injection, schedule: Q01DX009 (ip), vehicle: saline with Tween-80
[2] = dose: 50.0 mg/kg/injection, schedule: Q01DX009 (ip), vehicle: saline with Tween-80
[3] = dose: 100.0 mg/kg/injection, schedule: Q01DX009 (ip), vehicle: saline with Tween-80
[4] = dose: 100.0 mg/kg/injection, schedule: Q04DX003 (ip), vehicle: Klucel (hydroxypropylcellulose) (HPC)
[5] = dose: 200.0 mg/kg/injection, schedule: Q04DX003 (ip), vehicle: Klucel (hydroxypropylcellulose) (HPC)
[6] = dose: 400.0 mg/kg/injection, schedule: Q04DX003 (ip), vehicle: Klucel (hydroxypropylcellulose) (HPC)
[7] = dose: 50.0 mg/kg/injection, schedule: Q01DX005 (ip), vehicle: saline with Tween-80
[8] = dose: 100.0 mg/kg/injection, schedule: Q01DX005 (ip), vehicle: saline with Tween-80
[9] = dose: 200.0 mg/kg/injection, schedule: Q01DX005 (ip), vehicle: saline with Tween-80
[10] = dose: 50.0 mg/kg/injection, schedule: Q01DX005 (ip), vehicle: Klucel (hydroxypropylcellulose) (HPC)
[11] = dose: 100.0 mg/kg/injection, schedule: Q01DX005 (ip), vehicle: Klucel (hydroxypropylcellulose) (HPC)
[12] = dose: 200.0 mg/kg/injection, schedule: Q01DX005 (ip), vehicle: Klucel (hydroxypropylcellulose) (HPC)
[13] = dose: 200.0 mg/kg/injection, schedule: Q01DX009 (ip), vehicle: saline with Tween-80
[14] = dose: 60.0 mg/kg/injection, schedule: Q01DX005 (ip), vehicle: Klucel (hydroxypropylcellulose) (HPC)
[15] = dose: 120.0 mg/kg/injection, schedule: Q01DX005 (ip), vehicle: Klucel (hydroxypropylcellulose) (HPC)
[16] = dose: 240.0 mg/kg/injection, schedule: Q01DX005 (ip), vehicle: Klucel (hydroxypropylcellulose) (HPC)

## Cc1ccc(Nc2nc(N)nc3nc(N)c(C(N)=O)nc23)cc1
[1]
  T/C: 100 % of control
[2]
  T/C: 100 % of control
[3]
  T/C: 91 % of control

## O=C1CCCCc2scc(C(=O)O)c2N1
[4]
  T/C: 104 % of control
[5]
  T/C: 111 % of control
[6]
  T/C: 102 % of control

## COc1ccc2c(c1)CCn1c(C)c(COC(=O)NC(C)C)c(COC(=O)NC(C)C)c1-2
dose: 12.5 mg/kg/injection, schedule: Q01DX009 (ip), vehicle: distilled water + Tween-80
  T/C: 153 % of control and 160 % of control
dose: 25.0 mg/kg/injection, schedule: Q01DX009 (ip), vehicle: distilled water + Tween-80
  T/C: 153 % of control and 164 % of control

## O=c1c2[nH]c3ccccc3sc=2c(=O)n1-c1c(F)c(F)c(F)c(F)c1F
[7]
  T/C: 109 % of control
[8]
  T/C: 103 % of control
[9]
  T/C: 100 % of control

## Fc1ccc(N2CSC(=S)N(c3ccc(F)cc3F)C2)c(F)c1
[7]
  T/C: 107 % of control
[8]
  T/C: 104 % of control
[9]
  T/C: 95 % of control

## C=CCOC(=O)CCl
dose: 25.0 mg/kg/injection, schedule: Q04DX003 (ip), vehicle: Klucel (hydroxypropylcellulose) (HPC)
  T/C: 99 % of control
dose: 50.0 mg/kg/injection, schedule: Q04DX003 (ip), vehicle: Klucel (hydroxypropylcellulose) (HPC)
  T/C: 98 % of control
[4]
  T/C: 93 % of control and 96 % of control

## CC(CN(C)C)C(/C=C/c1ccccc1)=N\NC(=O)c1ccccc1 (stereo not given)
dose: 60.0 mg/kg/injection, schedule: Q01DX005 (ip), vehicle: saline
  T/C: 97 % of control
dose: 120.0 mg/kg/injection, schedule: Q01DX005 (ip), vehicle: saline
  T/C: 96 % of control
dose: 240.0 mg/kg/injection, schedule: Q01DX005 (ip), vehicle: saline
  T/C: 97 % of control

## COC(OC)C1(C)NC(=O)NC1=O (stereo not given)
dose: 50.0 mg/kg/injection, schedule: Q01DX009 (ip), vehicle: Klucel (hydroxypropylcellulose) (HPC)
  T/C: 102 % of control
dose: 100.0 mg/kg/injection, schedule: Q01DX009 (ip), vehicle: Klucel (hydroxypropylcellulose) (HPC)
  T/C: 103 % of control
[4]
  T/C: 95 % of control
dose: 200.0 mg/kg/injection, schedule: Q01DX009 (ip), vehicle: Klucel (hydroxypropylcellulose) (HPC)
  T/C: 93 % of control
[5]
  T/C: 98 % of control
[6]
  T/C: 100 % of control

## CC1CCC2(OC1)OC1CC3C4CC=C5CC(O)CCC5(C)C4CCC3(C)C1C2C (stereo not given)
[10]
  T/C: 100 % of control
[11]
  T/C: 89 % of control
[12]
  T/C: 86 % of control

## O=C(O)C(CCc1nc2ccccc2[nH]1)NS(=O)(=O)c1ccccc1 (stereo not given)
dose: 12.5 mg/kg/injection, schedule: Q01DX009 (ip), vehicle: saline with Tween-80
  T/C: 115 % of control
[1]
  T/C: 95 % of control
[2]
  T/C: 103 % of control and 91 % of control
[3]
  T/C: 102 % of control
[13]
  T/C: 102 % of control

## C/C=C(/C)C(=O)OC1CC(C)=CC(OC(=O)/C(C)=C\C)[C@]2(C)C1[C@](O)(C(C)C)C[C@H]2O (stereo not given in full)
dose: 2.0 mg/kg/injection, schedule: Q01DX005 (ip), vehicle: Klucel (hydroxypropylcellulose) (HPC)
  T/C: 106 % of control
dose: 4.0 mg/kg/injection, schedule: Q01DX005 (ip), vehicle: Klucel (hydroxypropylcellulose) (HPC)
  T/C: 96 % of control
dose: 8.0 mg/kg/injection, schedule: Q01DX005 (ip), vehicle: Klucel (hydroxypropylcellulose) (HPC)
  T/C: 99 % of control
dose: 16.0 mg/kg/injection, schedule: Q01DX005 (ip), vehicle: Klucel (hydroxypropylcellulose) (HPC)
  T/C: 99 % of control

## O=C1NC(=O)/C(=C\c2ccco2)S1
dose: 6.25 mg/kg/injection, schedule: Q01DX009 (ip), vehicle: Klucel (hydroxypropylcellulose) (HPC)
  T/C: 98 % of control
dose: 12.5 mg/kg/injection, schedule: Q01DX009 (ip), vehicle: Klucel (hydroxypropylcellulose) (HPC)
  T/C: 89 % of control
dose: 25.0 mg/kg/injection, schedule: Q01DX009 (ip), vehicle: Klucel (hydroxypropylcellulose) (HPC)
  T/C: 94 % of control

## CC(C)C1N=C(c2ccccc2)OC1=O (stereo not given)
[14]
  T/C: 92 % of control
[15]
  T/C: 92 % of control
[16]
  T/C: 100 % of control

## CCNc1ncc2c(n1)N(CC)C(=O)/C(=C\C(=O)OC)N2
dose: 37.5 mg/kg/injection, schedule: Q01DX009 (ip), vehicle: saline with Tween-80
  T/C: 94 % of control
dose: 150.0 mg/kg/injection, schedule: Q01DX009 (ip), vehicle: saline with Tween-80
  T/C: 93 % of control

## CCCCN(CCCC)C(=O)C(C)O (stereo not given)
dose: 25.0 mg/kg/injection, schedule: Q01DX005 (ip), vehicle: Klucel (hydroxypropylcellulose) (HPC)
  T/C: 108 % of control
[10]
  T/C: 105 % of control
[11]
  T/C: 110 % of control
[12]
  T/C: 112 % of control

## Cc1cccc(CC(C)(O)Cc2cccc(C)n2)n1
dose: 50.0 mg/kg/injection, schedule: Q01DX009 (ip), vehicle: other
  T/C: 100 % of control
dose: 100.0 mg/kg/injection, schedule: Q01DX009 (ip), vehicle: other
  T/C: 100 % of control
dose: 200.0 mg/kg/injection, schedule: Q01DX009 (ip), vehicle: other
  T/C: 122 % of control

## COc1ccc(S(=O)(=O)O)cc1N=N/C(=N/Nc1cc(S(=O)(=O)O)ccc1OC)C(=O)Nc1ccccc1
[14]
  T/C: 101 % of control
[15]
  T/C: 101 % of control
[16]
  T/C: 105 % of control

## CN(C)c1ccc(-c2cccc[n+]2C)cc1
dose: 1.5 mg/kg/injection, schedule: Q01DX009 (ip), vehicle: saline
  T/C: 103 % of control
dose: 3.0 mg/kg/injection, schedule: Q01DX009 (ip), vehicle: saline
  T/C: 108 % of control
dose: 6.0 mg/kg/injection, schedule: Q01DX009 (ip), vehicle: saline
  T/C: 109 % of control

## O=C(COC1CCCCC1)OC1CCCCC1
dose: 50.0 mg/kg/injection, schedule: Q04DX003 (ip), vehicle: saline with Tween-80
  T/C: 100 % of control
dose: 100.0 mg/kg/injection, schedule: Q04DX003 (ip), vehicle: saline with Tween-80
  T/C: 100 % of control

## CC(C)N(C(=O)c1ccc([Si](C)(C)C)c(C(=O)N(C(C)C)C(C)C)n1)C(C)C
dose: 60.0 mg/kg/injection, schedule: Q01DX005 (ip), vehicle: saline with Tween-80
  T/C: 98 % of control
dose: 120.0 mg/kg/injection, schedule: Q01DX005 (ip), vehicle: saline with Tween-80
  T/C: 94 % of control
dose: 240.0 mg/kg/injection, schedule: Q01DX005 (ip), vehicle: saline with Tween-80
  T/C: 98 % of control

## COC(=O)CC(O)CCCCCCCCCCCCC(C)C (stereo not given)
dose: 8.75 mg/kg/injection, schedule: Q01DX005 (ip), vehicle: Klucel + Tween-80
  T/C: 92 % of control
dose: 17.5 mg/kg/injection, schedule: Q01DX005 (ip), vehicle: Klucel + Tween-80
  T/C: 100 % of control
dose: 35.0 mg/kg/injection, schedule: Q01DX005 (ip), vehicle: Klucel + Tween-80
  T/C: 97 % of control

## NCCCCC(NC(=O)C(Cc1cnc[nH]1)NC(=O)CN)C(=O)O (stereo not drawn) (H-Gly-His-Lys-OH; configuration not given here)
dose: 50.0 mg/kg/injection, schedule: Q01DX005 (ip), vehicle: saline
  T/C: 109 % of control
dose: 100.0 mg/kg/injection, schedule: Q01DX005 (ip), vehicle: saline
  T/C: 104 % of control
dose: 200.0 mg/kg/injection, schedule: Q01DX005 (ip), vehicle: saline
  T/C: 100 % of control

## C=C(C)C(=O)OCCO (tested in a mixture with another compound)
[3]
  T/C: 100 % of control
[13]
  T/C: 100 % of control
dose: 400.0 mg/kg/injection, schedule: Q01DX009 (ip), vehicle: saline with Tween-80
  T/C: 100 % of control

## CCCCCCCC(=O)NN(Cn1c(=S)sc2ccccc21)Cn1c(=S)sc2ccccc21
[10]
  T/C: 96 % of control
[11]
  T/C: 88 % of control
[12]
  T/C: 88 % of control

## CC(C)(C)NCC(O)CSc1nc(-c2ccc(C(N)=O)s2)cs1 (stereo not given)
[2]
  T/C: 100 % of control
[3]
  T/C: 109 % of control
[13]
  T/C: 109 % of control

## CC1=C(C(=O)Nc2ccc(C)cc2C)C(c2cccc([N+](=O)[O-])c2)C(C(=O)Nc2ccc(C)cc2C)=C(C)N1
dose: 7.5 mg/kg/injection, schedule: Q01DX005 (ip), vehicle: Klucel (hydroxypropylcellulose) (HPC)
  T/C: 100 % of control
dose: 15.0 mg/kg/injection, schedule: Q01DX005 (ip), vehicle: Klucel (hydroxypropylcellulose) (HPC)
  T/C: 94 % of control
dose: 30.0 mg/kg/injection, schedule: Q01DX005 (ip), vehicle: Klucel (hydroxypropylcellulose) (HPC)
  T/C: 98 % of control

## CCCCCCCCCC(O)(CSc1ccccc1)CSc1ccccc1
[2]
  T/C: 99 % of control
[3]
  T/C: 100 % of control
[13]
  T/C: 114 % of control
